{"source": "patent US10702505B2", "about": "“Rifaximin” (CIPLA Limited, priority 2006, dated 2020)", "type_in_all_cases": "physicochemical", "key": {"tapped density": {"test": "tapped density"}, "[1]": {"test": "intrinsic dissolution of amorphous rifaximin against the α Form", "conditions": "37±0.5° C., 100 rpm", "experimental": "Temperature: 37±0.5° C. Rotation speed: 100 rpm Particle size: Amorphous rifaximin—11 microns • α Form of rifaximin—13 microns"}, "bulk density": {"test": "bulk density"}, "[2]": {"conditions": "15 minutes, 1000 ml 0.1M sodium dihydrogen phosphate monohydrate + 4.5 g sodium lauryl sulphate"}}, "note": "Like-named read-outs stand apart in the source and are kept apart here."}
{"smiles": "CO[C@H]1/C=C/O[C@@]2(C)Oc3c(C)c(O)c4c(O)c(c5c(nc6cc(C)ccn65)c4c3C2=O)NC(=O)/C(C)=C\\C=C\\[C@H](C)[C@H](O)[C@@H](C)[C@@H](O)[C@@H](C)[C@H](OC(C)=O)[C@@H]1C", "note": "[Amorphous Rifaximin, (2S,16Z,18E,20S,21S,22R,23R,24R,25S,26 S,27S,28E)-5,6,21,23,25-pentahydroxy-27-methoxy-2,4,11,16,20,22,24,26-octamethyl-2,7-(epoxypentadeca-[1,11,13]trienimino)benzofuro[4,5-e]pyrido[1,2-a]-benzimida-zole-1,15(2H)-dione,25-acetate]", "values": [{"measurement": "tapped density", "setting": "tapped density", "value": "0.4 to 0.5", "unit": "g/mL"}, {"measurement": "intrinsic dissolution profile compared with α Form", "setting": "[1]; 0.1M sodium dihydrogen phosphate monohydrate + sodium lauryl sulphate", "value": "better dissolution profile than α Form"}, {"measurement": "% Release", "setting": "[1]; [2]", "value": 1.1, "unit": "%"}, {"measurement": "% Release", "setting": "[1]; 30 minutes, same medium", "value": 1.9, "unit": "%"}, {"measurement": "% Release", "setting": "[1]; 45 minutes, same medium", "value": 2.9, "unit": "%"}, {"measurement": "% Release", "setting": "[1]; 60 minutes, same medium", "value": 3.7, "unit": "%"}, {"measurement": "% Release", "setting": "[1]; 120 minutes, same medium", "value": 8.1, "unit": "%"}, {"measurement": "% Release", "setting": "[1]; 180 minutes, same medium", "value": 12.6, "unit": "%"}, {"measurement": "% Release", "setting": "[1]; 240 minutes, same medium", "value": 16.6, "unit": "%"}, {"measurement": "% Release", "setting": "[1]; 360 minutes, same medium", "value": 24.7, "unit": "%"}, {"measurement": "% Release", "setting": "[1]; 480 minutes, same medium", "value": 32.0, "unit": "%"}, {"measurement": "% Release", "setting": "[1]; 600 minutes, same medium", "value": 39.5, "unit": "%"}, {"measurement": "% Release", "setting": "[1]; 720 minutes, same medium", "value": 46.4, "unit": "%"}, {"measurement": "% Release", "setting": "[1]; 960 minutes, same medium", "value": 60.4, "unit": "%"}, {"measurement": "% Release", "setting": "[1]; 1200 minutes, same medium", "value": 72.9, "unit": "%"}, {"measurement": "% Release", "setting": "[1]; 1400 minutes, same medium", "value": 83.0, "unit": "%"}, {"measurement": "bulk density", "setting": "bulk density", "value": "0.3 to 0.4", "unit": "g/mL"}]}
{"smiles": "CO[C@H]1/C=C/O[C@@]2(C)Oc3c(C)c(O)c4c(O)c(c5c(nc6cc(C)ccn65)c4c3C2=O)NC(=O)/C(C)=C\\C=C\\[C@H](C)[C@H](O)[C@@H](C)[C@@H](O)[C@@H](C)[C@H](OC(C)=O)[C@@H]1C", "note": "[α Form of Rifaximin, (2S,16Z,18E,20S,21S,22R,23R,24R,25S,26 S,27S,28E)-5,6,21,23,25-pentahydroxy-27-methoxy-2,4,11,16,20,22,24,26-octamethyl-2,7-(epoxypentadeca-[1,11,13]trienimino)benzofuro[4,5-e]pyrido[1,2-a]-benzimida-zole-1,15(2H)-dione,25-acetate, reference compound]", "values": [{"measurement": "tapped density", "setting": "tapped density; listed as α Form rifaximin", "value": "0.3 to 0.4", "unit": "g/mL"}, {"measurement": "% Release", "setting": "[1]; [2]", "value": 0.8, "unit": "%"}, {"measurement": "% Release", "setting": "[1]; 30 minutes, same medium", "value": 1.8, "unit": "%"}, {"measurement": "% Release", "setting": "[1]; 45 minutes, same medium", "value": 3.0, "unit": "%"}, {"measurement": "% Release", "setting": "[1]; 60 minutes, same medium", "value": 4.4, "unit": "%"}, {"measurement": "% Release", "setting": "[1]; 120 minutes, same medium", "value": 11.0, "unit": "%"}, {"measurement": "% Release", "setting": "[1]; 180 minutes, same medium", "value": 18.0, "unit": "%"}, {"measurement": "% Release", "setting": "[1]; 240 minutes, same medium", "value": 24.6, "unit": "%"}, {"measurement": "% Release", "setting": "[1]; 360 minutes, same medium", "value": 38.7, "unit": "%"}, {"measurement": "% Release", "setting": "[1]; 480 minutes, same medium", "value": 47.5, "unit": "%"}, {"measurement": "% Release", "setting": "[1]; 600 minutes, same medium", "value": 52.7, "unit": "%"}, {"measurement": "% Release", "setting": "[1]; 720 minutes, same medium", "value": 56.4, "unit": "%"}, {"measurement": "% Release", "setting": "[1]; 960 minutes, same medium", "value": 62.9, "unit": "%"}, {"measurement": "% Release", "setting": "[1]; 1200 minutes, same medium", "value": 67.8, "unit": "%"}, {"measurement": "% Release", "setting": "[1]; 1400 minutes, same medium", "value": 72.7, "unit": "%"}, {"measurement": "bulk density", "setting": "bulk density; listed as α Form rifaximin", "value": "0.2 to 0.3", "unit": "g/mL"}]}
